# Measurements published in the supplement of paper PMC7214452.
# Counter-ions that a name gives are not always drawn.
# Columns and labels:
# Test in all cases: normalized area under the dose-response curve (viability relative to DMSO control) (fraction); higher = less sensitive (more viable cells)
# Conditions in all cases: exposure time not given
# MM1.R (cancer type: MM) = tested on: MM1.R (cancer type: MM)
# Protocol: (§1)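 25 myeloma and 15 non-Hodgkin lymphoma cell lines were exposed to each of 76 drugs as 7-point log dilutions (0.01 nM–10 µM) in duplicate. Viability was read with CellTiter-Glo and normalised to DMSO (0.1%) and staurosporine (10 µM) plate controls. Normalised AUC was calculated by the trapezoidal method relative to the negative control.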
# Se-Ax (cancer type: TCL) = tested on: Se-Ax (cancer type: TCL)
# Protocol: as §1
# [1] = tested on: KMS28BM (cancer type: MM)
# Protocol: as §1
# JJN3 (cancer type: MM) = tested on: JJN3 (cancer type: MM)
# Protocol: as §1
# [2] = tested on: HuT 78 (cancer type: TCL)
# Protocol: as §1
# [3] = tested on: SR-786 (cancer type: TCL)
# Protocol: as §1
# MM1.S (cancer type: MM) = tested on: MM1.S (cancer type: MM)
# Protocol: as §1
# XG2 (cancer type: MM) = tested on: XG2 (cancer type: MM)
# Protocol: as §1
# [4] = tested on: OCI-LY1 (cancer type: DLBCL)
# Protocol: as §1
# My-La (cancer type: TCL) = tested on: My-La (cancer type: TCL)
# Protocol: as §1
# [5] = tested on: OCI-MY5/Vec (cancer type: MM)
# Protocol: as §1
# [6] = tested on: SU-DHL2 (cancer type: DLBCL)
# Protocol: as §1
# [7] = tested on: OCI-LY3 (cancer type: DLBCL)
# Protocol: as §1
# [8] = tested on: RPMI 8226 (cancer type: MM)
# Protocol: as §1
# KMS26 (cancer type: MM) = tested on: KMS26 (cancer type: MM)
# Protocol: as §1
# KMS18 (cancer type: MM) = tested on: KMS18 (cancer type: MM)
# Protocol: as §1
# SKMM2 (cancer type: MM) = tested on: SKMM2 (cancer type: MM)
# Protocol: as §1
# LP1 (cancer type: MM) = tested on: LP1 (cancer type: MM)
# Protocol: as §1
# FR4 (cancer type: MM) = tested on: FR4 (cancer type: MM)
# Protocol: as §1
# KMS11 (cancer type: MM) = tested on: KMS11 (cancer type: MM)
# Protocol: as §1
# [9] = tested on: KMS12PE (cancer type: MM)
# Protocol: as §1
# [10] = tested on: KMS28PE (cancer type: MM)
# Protocol: as §1
# EJM (cancer type: MM) = tested on: EJM (cancer type: MM)
# Protocol: as §1
# [11] = tested on: OCI-LY19 (cancer type: DLBCL)
# Protocol: as §1
# [12] = tested on: OCI-MY5/CRBN (cancer type: MM)
# Protocol: as §1
# [13] = tested on: OCI-MY5 (cancer type: MM)
# Protocol: as §1
# [14] = tested on: OCI-MY7 (cancer type: MM)
# Protocol: as §1
# [15] = tested on: JVM2 (cancer type: Mantle)
# Protocol: as §1
# [16] = tested on: Karpas-299 (cancer type: TCL)
# Protocol: as §1
# AMO1 (cancer type: MM) = tested on: AMO1 (cancer type: MM)
# Protocol: as §1
# [17] = tested on: NCI-H929 (cancer type: MM)
# Protocol: as §1
# [18] = tested on: SU-DHL1 (cancer type: TCL)
# Protocol: as §1
# [19] = tested on: Mino (cancer type: Mantle)
# Protocol: as §1
# [20] = tested on: SU-DHL6 (cancer type: DLBCL)
# Protocol: as §1
# [21] = tested on: JeKo-1 (cancer type: Mantle)
# Protocol: as §1
# [22] = tested on: Granta-519 (cancer type: Mantle)
# Protocol: as §1
# U266 (cancer type: MM) = tested on: U266 (cancer type: MM)
# Protocol: as §1
# KMS34 (cancer type: MM) = tested on: KMS34 (cancer type: MM)
# Protocol: as §1
# L363 (cancer type: MM) = tested on: L363 (cancer type: MM)
# Protocol: as §1
# OPM2 (cancer type: MM) = tested on: OPM2 (cancer type: MM)
# Protocol: as §1
Structure (SMILES),normalized area under the dose-response curve (MM1.R (cancer type: MM)),normalized area under the dose-response curve (Se-Ax (cancer type: TCL)),normalized area under the dose-response curve [1],normalized area under the dose-response curve (JJN3 (cancer type: MM)),normalized area under the dose-response curve [2],normalized area under the dose-response curve [3],normalized area under the dose-response curve (MM1.S (cancer type: MM)),normalized area under the dose-response curve (XG2 (cancer type: MM)),normalized area under the dose-response curve [4],normalized area under the dose-response curve (My-La (cancer type: TCL)),normalized area under the dose-response curve [5],normalized area under the dose-response curve [6],normalized area under the dose-response curve [7],normalized area under the dose-response curve [8],normalized area under the dose-response curve (KMS26 (cancer type: MM)),normalized area under the dose-response curve (KMS18 (cancer type: MM)),normalized area under the dose-response curve (SKMM2 (cancer type: MM)),normalized area under the dose-response curve (LP1 (cancer type: MM)),normalized area under the dose-response curve (FR4 (cancer type: MM)),normalized area under the dose-response curve (KMS11 (cancer type: MM)),normalized area under the dose-response curve [9],normalized area under the dose-response curve [10],normalized area under the dose-response curve (EJM (cancer type: MM)),normalized area under the dose-response curve [11],normalized area under the dose-response curve [12],normalized area under the dose-response curve [13],normalized area under the dose-response curve [14],normalized area under the dose-response curve [15],normalized area under the dose-response curve [16],normalized area under the dose-response curve (AMO1 (cancer type: MM)),normalized area under the dose-response curve [17],normalized area under the dose-response curve [18],normalized area under the dose-response curve [19],normalized area under the dose-response curve [20],normalized area under the dose-response curve [21],normalized area under the dose-response curve [22],normalized area under the dose-response curve (U266 (cancer type: MM)),normalized area under the dose-response curve (KMS34 (cancer type: MM)),normalized area under the dose-response curve (L363 (cancer type: MM)),normalized area under the dose-response curve (OPM2 (cancer type: MM))
Cc1ccc(F)c(NC(=O)Nc2ccc(-c3cccc4[nH]nc(N)c34)cc2)c1 [Linifanib],0.58,0.627,0.646,0.603,0.63,0.721,0.55,0.547,0.995,0.852,0.57,0.981,0.983,0.165,0.709,0.56,0.667,0.348,0.441,0.65,0.73,0.722,0.526,0.987,0.55,0.468,0.5,0.25,0.651,0.567,0.59,0.519,0.735,0.955,0.759,0.861,0.549,0.33,0.605,0.587
N[C@@H](Cc1ccc(N(CCCl)CCCl)cc1)C(=O)O [Melphalan hydrochloride],0.8,0.778,0.95,0.874,0.787,0.973,0.79,0.776,0.94,0.892,0.936,0.936,0.858,0.897,0.791,0.842,0.892,0.85,0.919,0.826,0.86,0.758,0.685,1.01,0.926,0.643,0.73,0.742,0.907,0.722,0.77,0.41,0.818,0.905,0.788,0.798,0.885,0.573,0.73,0.896
COc1nc(N)nc2c1ncn2[C@@H]1O[C@H](CO)[C@@H](O)[C@@H]1O [Nelarabine],0.85,0.779,0.924,0.987,0.913,0.902,0.91,0.935,0.996,0.929,0.946,0.937,1.01,0.915,0.861,0.973,0.96,0.94,1.01,0.992,0.92,0.951,0.889,0.993,0.928,0.98,0.94,0.883,0.972,0.948,0.95,0.858,0.978,0.989,0.921,0.99,0.985,0.88,0.92,0.978
Cc1cn(-c2cc(NC(=O)c3ccc(C)c(Nc4nccc(-c5cccnc5)n4)c3)cc(C(F)(F)F)c2)cn1 [Nilotinib],0.81,0.798,0.871,0.512,0.944,0.929,0.78,0.959,0.948,0.978,0.953,0.91,0.946,0.89,0.948,0.865,0.889,0.908,0.838,0.736,0.88,0.695,0.904,0.841,0.863,0.39,0.88,0.741,0.896,0.693,0.86,0.851,0.942,0.918,0.94,0.953,0.826,0.604,0.634,0.443
COC(=O)c1ccc2c(c1)NC(=O)/C2=C(\Nc1ccc(N(C)C(=O)CN2CCN(C)CC2)cc1)c1ccccc1 [Nintedanib],0.84,0.92,0.87,0.979,0.883,0.828,0.79,0.764,0.98,0.902,0.957,0.966,0.992,0.791,0.764,0.934,0.943,0.828,0.911,0.723,0.94,0.737,0.784,0.906,0.929,0.846,0.97,0.815,0.862,0.801,0.87,0.839,0.956,0.919,0.933,0.942,0.941,0.835,0.798,0.844
C=CC(=O)Nc1cc(Nc2nccc(-c3cn(C)c4ccccc34)n2)c(OC)cc1N(C)CCN(C)C [Osimertinib],0.45,0.445,0.53,0.439,0.473,0.521,0.44,0.422,0.937,0.769,0.535,0.925,0.931,0.429,0.532,0.442,0.506,0.406,0.582,0.417,0.46,0.476,0.429,0.872,0.551,0.399,0.42,0.597,0.574,0.423,0.47,0.463,0.601,0.911,0.626,0.834,0.451,0.337,0.466,0.489
CC(=O)O[C@H]1C(=O)[C@@]2(C)[C@H]([C@H](OC(=O)c3ccccc3)[C@]3(O)C[C@H](OC(=O)[C@H](O)[C@@H](NC(=O)c4ccccc4)c4ccccc4)C(C)=C1C3(C)C)[C@]1(OC(C)=O)CO[C@@H]1C[C@@H]2O [Paclitaxel],0.58,0.635,0.698,0.993,0.329,0.417,0.52,0.542,0.354,0.896,0.478,0.642,0.582,0.781,0.767,0.702,0.98,0.865,0.703,0.853,0.85,0.675,0.751,0.652,0.595,0.666,0.86,0.78,0.454,0.595,0.49,0.611,0.556,0.793,0.3,0.544,0.51,0.787,0.726,0.89
CC(=O)c1c(C)c2cnc(Nc3ccc(N4CCNCC4)cn3)nc2n(C2CCCC2)c1=O [Palbociclib],0.77,0.776,0.932,0.694,0.712,0.821,0.69,0.656,0.889,0.745,0.746,0.897,0.791,0.636,0.769,0.81,0.782,0.794,0.716,0.79,0.74,0.851,0.733,0.727,0.9,0.561,0.82,0.65,0.837,0.529,0.91,0.705,0.655,0.771,0.656,0.876,0.688,0.751,0.743,0.852
